Measurements taken from US11723886B2, “Targeting ocular diseases with novel APE1/Ref-1 inhibitors” (Indiana University Research and Technology Corporation, priority 2018, dated 2023).

Legend:
Ref-1 = Ref-1 (Homo sapiens, UniProt P27695); test: Electrophoretic mobility shift assay (redox EMSA), Ref-1-induced AP-1 DNA binding; assay type: biochemical; conditions: 30 min pre-incubation with purified Ref-1, read-out: IC50 for redox EMSA inhibition
Experimental: Electrophoretic mobility shift assays (EMSA). These assays were performed as previously described (Luo et al., Antioxid Redox Signal 10:18531867 (2008); Kelley et al., Antioxid Redox Signal 14:1387-1401 (2011); Su et al., Biochemistry 50:82-92 (2011); Luo et al., Biochemistry 51:695-705 (2012); Zhang et al., Biochemistry 52:2955-2966 (2013)). […] The EMSA assay was performed using the AP-1 target DNA sequence and AP-1 protein.

HRECs [1] = test: EdU incorporation and Ki-67 staining in HRECs; assay type: cell-based, human
Experimental: EdU incorporation, Ki-67 Staining and TUNEL. These assays were carried out as described previously (Basavarajappa et al., PLoS One 9:e95694 (2014); Basavarajappa et al., EMBO Mol Med 9:786-801 (2017)) with the exception of using chamber slides, not coverslips. Briefly, cells (30,000 per well) were seeded on 8-well chamber slides coated with attachment factors and allowed to attach overnight. Cells were treated with the indicated compound concentrations for 17 hours (overnight). To assay proliferation, cells were incubated with EdU in complete media for 8 hours at 37° C. Cells were then fixed in 4% paraformaldehyde for 20 minutes and permeabilized using 0.25% Triton X-100 prepared in PBS. Cells were incubated with a rabbit-specific monoclonal antibody against Ki-67 (D3B5) (#9129; Cell Signaling, Danvers, Mass.) (1:400) overnight at 4° C. Secondary antibody was Alexa Fluor goat anti-rabbit 488 (A11034; Invitrogen, Carlsbad, Calif.) with DAPI counter-stain for nuclear staining. Proliferating cells that incorporated EdU were detected using the Click-iT EdU Imaging kit (Invitrogen, Carlsbad, Calif.). […] The cells were imaged using a Zeiss AxioImager D2 microscope or an LSM 700 confocal microscope and the percentage of positive cells was counted on three low-power (for TUNEL) or high-power (for Ki-67 and EdU) fields per well using ImageJ software.

Rf/6a cells = test: Matrigel tube formation assay, Rf/6a; assay type: cell-based, macaque; conditions: mid nanomolar concentrations, vs control
Experimental: In vitro Matrigel tube formation assay. The ability of HRECs and Rf/6a cells to form tubes in vitro was monitored as described before (Basavarajappa et al., PLoS One 9:e95694 (2014); Basavarajappa et al., EMBO Mol Med 9:786-801 (2017)). Briefly, cells were treated with the indicated concentrations of APX2009 or APX2014 compounds or DMSO for 48 hours and then 1.5×10^4 cells in 100 μL of growth medium containing DMSO or APX compounds were added to each well of a 96-well plate that was pre-coated with 50 μL of Matrigel basement membrane (DMSO final concentration=1%). Digital photographs of each well at different time points were taken to measure the in vitro tube formation using the Angiogenesis Analyzer plugin in ImageJ software (v.1.48; http://image.bio.methods.free.fr/ImageJ/?Angiogenesis-Analyzer-for-ImageJ.html).

HRECs [2] = test: Scratch wound cell migration assay, HRECs; assay type: cell-based, human
Experimental: In vitro cell migration assay. Endothelial cell migration was monitored as described before (Basavarajappa et al., PLoS One 9:e95694 (2014); Basavarajappa et al., EMBO Mol Med 9:786-801 (2017)). Briefly, HRECs and Rf/6a were grown until confluency in 12-well plates. Using a sterile 10-μL micropipette tip, a scratch wound was made across the center of each well and fresh complete media containing DMSO or different concentrations of APX2009 or APX2014 compounds were added to the wells (DMSO final concentration=1%). Wells were imaged via digital brightfield microscopy at different time points, and the number of migrated cells into the scratched area was manually counted.

HRECs [3] = test: Propidium iodide cell cycle analysis in HRECs; assay type: cell-based, human; conditions: high doses, 24 hours
Experimental: Cell cycle analysis. HRECs (2×10^6) were grown in EGM-2 medium. Cells were serum starved in EBM-2 medium overnight, then treated with the indicated concentrations of APX2009 or APX2014 along with DMSO control for 24 hours in complete medium. Cells were washed twice in ice-cold PBS followed by fixation in 66% ethanol solution overnight at 4° C. Fixed cells were again washed twice in ice-cold PBS and the pellets were resuspended in propidium iodide staining solution for 30 minutes at 37° C. (20 μg/mL propidium iodide prepared in 1×PBS containing 0.1% Triton X-100 and 100 μg/mL RNase A). After incubation cells were analyzed using flow cytometry (FACSCalibur, BD Biosciences, San Jose, Calif.). Pulse shape analysis was used to exclude doublets and debris. The single cell population was then assessed by the FL2 area histogram plot using ModFit software (v. 5.0) and cell cycle profiles were generated.

[4] = tested on: human retinal microvascular endothelial cells (HRECs); test: In vitro cell proliferation assay (alamarBlue), HRECs; assay type: cell-based; conditions: HREC, read-out: GI50 (median growth inhibition), HRECs
Experimental: (§1) Cells. Primary human retinal microvascular endothelial cells (HRECs) were obtained from Cell Systems, Inc. (Kirkland, Wash.), while the Rf/6a macacque choroidal endothelial cell line was obtained from ATCC (Manassas, Va.). Cells were maintained as described (Basavarajappa et al., EMBO Mol Med 9:786-801 (2017)), re-ordered at least annually, and regularly assessed for mycoplasma contamination.
(§2) In vitro cell proliferation assay. Endothelial cell proliferation was measured as described previously (Basavarajappa et al., PLoS One 9:e95694 (2014); Basavarajappa et al., EMBO Mol Med 9:786-801 (2017)). Briefly, 2.5×10^3 cells were seeded in 100 μL of growth medium and plated in each well of 96-well clear-bottom black plates and incubated for 24 hours. APX2009, APX2014, or DMSO vehicle (DMSO final concentration=1%) was added, and the plates were incubated for 24-48 hours in 100 μL complete medium at 37° C. and 5% CO2. AlamarBlue reagent (11.1 μL) was added to each well of the plate and 4 hours later fluorescence readings were taken at excitation and emission wavelengths of 560 nm and 590 nm, respectively, using a Synergy H1 plate reader (BioTek, Winooski, Vt.). GI50 was calculated using GraphPad Prism v. 7.0.

[5] = tested on: Rf/6a macaque choroidal endothelial cells; test: In vitro cell proliferation assay (alamarBlue), Rf/6a; assay type: cell-based; conditions: Macaca mulatta, Rf/6a choroidal endothelial cells, read-out: GI50 (median growth inhibition), Rf/6a
Experimental: as §1, §2

Chain of Ref-1 (P27695 whole entry): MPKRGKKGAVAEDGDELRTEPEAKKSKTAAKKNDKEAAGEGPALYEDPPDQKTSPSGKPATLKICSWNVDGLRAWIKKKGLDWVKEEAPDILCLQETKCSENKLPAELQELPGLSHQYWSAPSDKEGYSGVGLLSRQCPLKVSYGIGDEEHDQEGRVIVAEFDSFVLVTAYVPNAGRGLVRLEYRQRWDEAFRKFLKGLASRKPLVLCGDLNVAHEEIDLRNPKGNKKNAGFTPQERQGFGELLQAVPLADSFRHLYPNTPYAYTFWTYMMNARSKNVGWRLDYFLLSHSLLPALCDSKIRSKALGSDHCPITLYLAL

Row | Structure (SMILES) | IC50 (Ref-1) [nM] | cells going through S phase (Ki-67 staining, EdU incorporation) (HRECs [1]) | ability to form tubes, Rf/6a (Rf/6a cells) | cell migration in scratch wound assay, HRECs (HRECs [2]) | cell cycle phase distribution (HRECs [3]) | GI50 [4] [nM] | GI50 [5] [nM]
1 | CCC/C(=C\C1=C(OC)C(=O)c2ccccc2C1=O)C(=O)N(CC)CC [APX2009, (2E)-2-[(3-methoxy-1,4-dioxo-1,4-dihydronaphthalen-2-yl)methylidene]-N,N-diethylpentanamide] | 450 | reduced the number of cells going through S phase | significantly reduced | significantly inhibited | modest increase in cells in G0/G1 phase | 1100 | 26000
2 | CCC/C(=C\C1=C(OC)C(=O)c2ccccc2C1=O)C(=O)NOC [APX2014, (2E)-2-[(3-methoxy-1,4-dioxo-1,4-dihydronapthalen-2-yl)methylidene]-N-methoxypentanamide] | 200 | reduced the number of cells going through S phase | significantly reduced | significantly inhibited | modest increase in cells in G0/G1 phase | 110 | 5000
